Measured values reported in ChEMBL document CHEMBL1151065, “Antiproliferative activity of haloosmocenium ions against human and murine cancer cell lines” (Bioorg Med Chem Lett, 1994).

Tests used:
COLO 320 = assay: Antiproliferative effect against human COLO 320 colon adenocarcinoma cells; assay type: functional, cell-based
Daudi = assay: Antiproliferative effect against human Daudi Burkitt lymphoma cells; assay type: functional, cell-based
HL-60 = assay: Antiproliferative effect against human HL60 promyelocytic leukemia cells; assay type: functional, cell-based
LX-830 cell line [1] = assay: Antiproliferative effect against mouse LX830 lymphoma cells; assay type: functional, cell-based
NIH3T3 = assay: Antiproliferative effect against mouse NIH3T3 embryonic cells; assay type: functional, cell-based
CCRF S-180 = assay: Antiproliferative effect against mouse S180 sarcoma cells; assay type: functional, cell-based
U-937 [2] = assay: Antiproliferative effect against human U937 histiocytic lymphoma cells; assay type: functional, cell-based
U-937 [3] = assay: Rate of oxygen consumption of human U937 cells (10e7 cells) at 10 uM concentration was determined at 30degreeC, with control value 14.5; assay type: functional, cell-based
LX-830 cell line [4] = assay: Antiproliferative effect against mouse LX830 lymphoma cells; inactive; assay type: functional, cell-based
[5] = Redox potential from cyclic voltammogram; assay type: physicochemical
U-937 [6] = assay: Rate of oxygen consumption of human U937 cells (10e7 cells) at 200 uM concentration was determined at 30 degree C; assay type: functional, cell-based
[7] = Rate of oxidation by the compound at 0.44 mM versus 0.49 mM of reduced cytochrome was determined at 30 degree C
[8] = Rate of oxidation by the compound at 0.5 mM versus 0.24 mM of NADH was determined

Substance | IC50 (COLO 320) [µM] | IC50 (Daudi) [µM] | IC50 (HL-60) [µM] | IC50 (LX-830 cell line [1]) [µM] | IC50 (NIH3T3) [µM] | IC50 (CCRF S-180) [µM] | IC50 (U-937 [2]) [µM] | Oxygen consumption rate (U-937 [3]) [nM/min] | IC50 (LX-830 cell line [4]) | E0 [5] | Oxygen consumption rate (U-937 [6]) [nM/min] | Oxidation rate [7] [nM/min] | Oxidation rate [8] [µM/min]
CISPLATIN [listing 1 of 2 here] | 6.6 | 1.7 | 4.3 | 13.2 | 0.3 | 0.8 | 5.2 |  |  |  |  |  | 
CISPLATIN [listing 2 of 2 here] |  |  |  |  |  |  |  | 13.4 |  |  |  |  | 
osmium(2+) ion bis(cyclopenta-1,3-diene) hexafluoro-phosphanuide iodide [listing 1 of 2 here] | > 200 | 79 | 75 |  | 87 | 120 | 196 |  | Not Active | 0.46 |  |  | 
osmium(2+) ion bis(cyclopenta-1,3-diene) hexafluoro-phosphanuide iodide [listing 2 of 2 here] |  |  |  |  |  |  |  |  |  |  | 10.5 | 824 | 8
